Holding throughout (test): relative viability (nuclei count vs DMSO), 5 days (fraction); higher = more cells survive
Compound in assay [1]: CC(C)C[C@H](NC(=O)[C@H](CCc1ccccc1)NC(=O)CN1CCOCC1)C(=O)N[C@@H](Cc1ccccc1)C(=O)N[C@@H](CC(C)C)C(=O)[C@@]1(C)CO1 [Carfilzomib] + CC(=O)Nc1cccc(-n2c(=O)n(C3CC3)c(=O)c3c(Nc4ccc(I)cc4F)n(C)c(=O)c(C)c32)c1 [Trametinib] (partner 0.02 µM)
Put shortly:
(§1)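 Lung cancer cell lines, seeded in 1536-well plates, were treated the following day by pin tool with a single drug or with five library-drug doses (not always all listed) in √10 steps on top of a fixed anchor-drug dose. Cells were fixed and nuclei stained in one step after 5 days, and nuclei were counted. Relative viability is the nuclei count for treated wells divided by that for vehicle wells, reported as medians of duplicate plates.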

Compound in assay [2]: CC(C)C[C@H](NC(=O)[C@H](CCc1ccccc1)NC(=O)CN1CCOCC1)C(=O)N[C@@H](Cc1ccccc1)C(=O)N[C@@H](CC(C)C)C(=O)[C@@]1(C)CO1 [Carfilzomib] + O=C(CCCCCCC(=O)Nc1ccccc1)NO [Vorinostat] (partner 1 µM)
The method in brief:
as §1

Compound in assay [3]: C[C@@H](Oc1cc(-c2cnn(C3CCNCC3)c2)cnc1N)c1c(Cl)ccc(F)c1Cl [Crizotinib] + CC(=O)c1c(C)c2cnc(Nc3ccc(N4CCNCC4)cn3)nc2n(C2CCCC2)c1=O [Palbociclib] (partner 0.5 µM)
Put shortly: as §1

Compound in assay [4]: O=C(c1cc(Cc2n[nH]c(=O)c3ccccc23)ccc1F)N1CCN(C(=O)C2CC2)CC1 [Olaparib] + CS(=O)(=O)N1CCN(Cc2cc3nc(-c4cccc5[nH]ncc45)nc(N4CCOCC4)c3s2)CC1 [Pictilisib] (partner 1 µM)
The method in brief: as §1

The record followed here is the supplement of paper PMC10307832.

Regarding NCI-H1793, the relative viability in assay [1] (first compound 0.001 µM) was determined as 0.38; in assay [1] (first compound 0.003162 µM), 0.497; in assay [1] (first compound 0.01 µM), 0.46; in assay [1] (first compound 0.03162 µM), 0.472; in assay [1] (first compound 0.1 µM) it was 0.35; in assay [2] (first compound 0.001 µM) it was 0.605. Moreover, the relative viability in assay [2] (first compound 0.003162 µM) was 1; in assay [2] (first compound 0.01 µM), 0.7; in assay [2] (first compound 0.03162 µM), 0.396; in assay [2] (first compound 0.1 µM), 0.107; in assay [3] (first compound 0.03162 µM), 0.339; in assay [3] (first compound 0.1 µM), 0.311. Also, the relative viability was 0.277 in assay [3] (first compound 1 µM); 0.515 in assay [4] (first compound 0.08 µM); 0.389 in assay [4] (first compound 0.253 µM); 0.251 in assay [4] (first compound 2.53 µM); 0.298 in assay [4] (first compound 8 µM).
